According to PubChem BioAssay (NCI):
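GI50 marks 50% less growth. TGI: total growth inhibition.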

How the values were obtained:
Assay in all cases: DTP human tumour cell line panel, 384-well format
IGROV1 ovarian = tested on: IGROV1 ovarian
ACHN renal = tested on: ACHN renal
SW-620 colon = tested on: SW-620 colon
UACC-257 melanoma = tested on: UACC-257 melanoma
PC-3 prostate = tested on: PC-3 prostate
NCI/ADR-RES ovarian = tested on: NCI/ADR-RES ovarian
SNB-75 CNS = tested on: SNB-75 CNS
OVCAR-8 ovarian = tested on: OVCAR-8 ovarian
T-47D breast = tested on: T-47D breast
SK-OV-3 ovarian = tested on: SK-OV-3 ovarian
M14 melanoma = tested on: M14 melanoma
UO-31 renal = tested on: UO-31 renal
HOP-92 NSCLC = tested on: HOP-92 NSCLC
NCI-H322M lung = tested on: NCI-H322M lung
A549 NSCLC = tested on: A549 NSCLC
SF-295 CNS = tested on: SF-295 CNS
A498 renal = tested on: A498 renal
U251 glioblastoma = tested on: U251 glioblastoma
NCI-H226 lung = tested on: NCI-H226 lung
HL-60(TB) leukemia = tested on: HL-60(TB) leukemia
SF-539 CNS = tested on: SF-539 CNS
SK-MEL-28 melanoma = tested on: SK-MEL-28 melanoma
HCT-116 colon = tested on: HCT-116 colon
786-0 renal = tested on: 786-0 renal
OVCAR-4 ovarian = tested on: OVCAR-4 ovarian
EKVX NSCLC = tested on: EKVX NSCLC
TK-10 renal = tested on: TK-10 renal
K-562 leukemia = tested on: K-562 leukemia
LOX IMVI melanoma = tested on: LOX IMVI melanoma
NCI-H23 lung = tested on: NCI-H23 lung
MALME-3M melanoma = tested on: MALME-3M melanoma
HS 578T breast = tested on: HS 578T breast
KM12 colon = tested on: KM12 colon
BT-549 breast = tested on: BT-549 breast
HT29 colon = tested on: HT29 colon
SN12C renal = tested on: SN12C renal
OVCAR-3 ovarian = tested on: OVCAR-3 ovarian
SF-268 CNS = tested on: SF-268 CNS
RPMI-8226 leukemia = tested on: RPMI-8226 leukemia
CCRF-CEM leukemia = tested on: CCRF-CEM leukemia
MDA-MB-468 breast = tested on: MDA-MB-468 breast
SNB-19 CNS = tested on: SNB-19 CNS
OVCAR-5 ovarian = tested on: OVCAR-5 ovarian
NCI-H522 lung = tested on: NCI-H522 lung
DU-145 prostate = tested on: DU-145 prostate
MDA-MB-435 melanoma = tested on: MDA-MB-435 melanoma
MOLT-4 leukemia = tested on: MOLT-4 leukemia
HCT-15 colon = tested on: HCT-15 colon
HOP-62 NSCLC = tested on: HOP-62 NSCLC
UACC-62 melanoma = tested on: UACC-62 melanoma
SK-MEL-2 melanoma = tested on: SK-MEL-2 melanoma
CAKI-1 renal = tested on: CAKI-1 renal
MDA-MB-231 breast = tested on: MDA-MB-231 breast
RXF 393 renal = tested on: RXF 393 renal
MCF7 breast = tested on: MCF7 breast

Q: How did the GI50 (IGROV1 ovarian) turn out when `O=C1c2c(O)ccc(O)c2C(=O)c2c(NCCNCCO)ccc(NCCNCCO)c21` was run?
A: 0.185 µM

Q: And the TGI (IGROV1 ovarian)?
A: 5.37 µM

Q: What about the GI50 (ACHN renal) of the same compound?
A: 0.0333 µM

Q: What about the TGI (ACHN renal) of the same compound?
A: 0.251 µM

Q: And the GI50 (SW-620 colon)?
A: < 0.01 µM

Q: And the TGI (SW-620 colon)?
A: 0.507 µM

Q: And the GI50 (UACC-257 melanoma)?
A: 1.1 µM

Q: What about the TGI (UACC-257 melanoma) of the same compound?
A: 2.37 µM

Q: What about the GI50 (PC-3 prostate) of the same compound?
A: 0.135 µM

Q: And the TGI (PC-3 prostate)?
A: 0.545 µM

Q: What about the GI50 (NCI/ADR-RES ovarian) of the same compound?
A: 4.58 µM

Q: What about the TGI (NCI/ADR-RES ovarian) of the same compound?
A: > 100 µM

Q: What about the GI50 (SNB-75 CNS) of the same compound?
A: 0.0229 µM

Q: What about the TGI (SNB-75 CNS) of the same compound?
A: 0.13 µM

Q: And the GI50 (OVCAR-8 ovarian)?
A: < 0.01 µM

Q: What about the TGI (OVCAR-8 ovarian) of the same compound?
A: 0.152 µM

Q: And the GI50 (T-47D breast)?
A: 0.0298 µM

Q: And the TGI (T-47D breast)?
A: 1.42 µM

Q: And the GI50 (SK-OV-3 ovarian)?
A: 0.0177 µM

Q: And the TGI (SK-OV-3 ovarian)?
A: 0.661 µM

Q: What about the GI50 (M14 melanoma) of the same compound?
A: 0.0177 µM

Q: And the TGI (M14 melanoma)?
A: 0.334 µM

Q: What about the GI50 (UO-31 renal) of the same compound?
A: 0.195 µM

Q: What about the TGI (UO-31 renal) of the same compound?
A: 1.65 µM

Q: And the GI50 (HOP-92 NSCLC)?
A: 0.0248 µM

Q: What about the TGI (HOP-92 NSCLC) of the same compound?
A: 1.19 µM

Q: What about the GI50 (NCI-H322M lung) of the same compound?
A: 0.313 µM

Q: And the TGI (NCI-H322M lung)?
A: 1.76 µM

Q: And the GI50 (A549 NSCLC)?
A: < 0.01 µM

Q: What about the TGI (A549 NSCLC) of the same compound?
A: 0.181 µM

Q: And the GI50 (SF-295 CNS)?
A: 0.0106 µM

Q: And the TGI (SF-295 CNS)?
A: 0.0447 µM

Q: What about the GI50 (A498 renal) of the same compound?
A: 0.0114 µM

Q: And the TGI (A498 renal)?
A: 0.217 µM

Q: And the GI50 (U251 glioblastoma)?
A: < 0.01 µM

Q: And the TGI (U251 glioblastoma)?
A: 0.114 µM

Q: And the GI50 (NCI-H226 lung)?
A: 0.0134 µM

Q: And the TGI (NCI-H226 lung)?
A: 0.163 µM

Q: What about the GI50 (HL-60(TB) leukemia) of the same compound?
A: < 0.01 µM

Q: And the TGI (HL-60(TB) leukemia)?
A: < 0.01 µM

Q: What about the GI50 (SF-539 CNS) of the same compound?
A: < 0.01 µM

Q: What about the TGI (SF-539 CNS) of the same compound?
A: 0.124 µM

Q: And the GI50 (SK-MEL-28 melanoma)?
A: 0.116 µM

Q: What about the TGI (SK-MEL-28 melanoma) of the same compound?
A: 1.37 µM

Q: And the GI50 (HCT-116 colon)?
A: < 0.01 µM

Q: And the TGI (HCT-116 colon)?
A: 0.242 µM

Q: What about the GI50 ([…]-0 renal) of the same compound?
A: 0.0103 µM

Q: And the TGI (786-0 renal)?
A: 0.246 µM

Q: And the GI50 (OVCAR-4 ovarian)?
A: 0.171 µM

Q: What about the TGI (OVCAR-4 ovarian) of the same compound?
A: 0.66 µM

Q: And the GI50 (EKVX NSCLC)?
A: 0.589 µM

Q: And the TGI (EKVX NSCLC)?
A: 3.54 µM

Q: And the GI50 (TK-10 renal)?
A: 0.121 µM

Q: What about the TGI (TK-10 renal) of the same compound?
A: 0.358 µM

Q: And the GI50 (K-562 leukemia)?
A: 0.0481 µM

Q: And the TGI (K-562 leukemia)?
A: 0.24 µM

Q: What about the GI50 (LOX IMVI melanoma) of the same compound?
A: 0.0138 µM

Q: And the TGI (LOX IMVI melanoma)?
A: 0.155 µM

Q: What about the GI50 (NCI-H23 lung) of the same compound?
A: 0.0129 µM

Q: What about the TGI (NCI-H23 lung) of the same compound?
A: 0.102 µM

Q: And the GI50 (MALME-3M melanoma)?
A: 0.0611 µM

Q: And the TGI (MALME-3M melanoma)?
A: 0.388 µM

Q: What about the GI50 (HS 578T breast) of the same compound?
A: < 0.01 µM

Q: And the TGI (HS 578T breast)?
A: 0.181 µM

Q: And the GI50 (KM12 colon)?
A: 0.0447 µM

Q: And the TGI (KM12 colon)?
A: 0.284 µM

Q: And the GI50 (BT-549 breast)?
A: 0.0155 µM

Q: And the TGI (BT-549 breast)?
A: 0.195 µM

Q: What about the GI50 (HT29 colon) of the same compound?
A: 0.0344 µM

Q: And the TGI (HT29 colon)?
A: 0.187 µM

Q: And the GI50 (SN12C renal)?
A: < 0.01 µM

Q: What about the TGI (SN12C renal) of the same compound?
A: 0.0555 µM

Q: What about the GI50 (OVCAR-3 ovarian) of the same compound?
A: 0.186 µM

Q: And the TGI (OVCAR-3 ovarian)?
A: 1.16 µM

Q: What about the GI50 (SF-268 CNS) of the same compound?
A: < 0.01 µM

Q: What about the TGI (SF-268 CNS) of the same compound?
A: 0.154 µM

Q: And the GI50 (RPMI-8226 leukemia)?
A: < 0.01 µM

Q: What about the TGI (RPMI-8226 leukemia) of the same compound?
A: 0.0371 µM

Q: What about the GI50 (CCRF-CEM leukemia) of the same compound?
A: < 0.01 µM

Q: And the TGI (CCRF-CEM leukemia)?
A: < 0.01 µM

Q: And the GI50 (MDA-MB-468 breast)?
A: 0.0168 µM

Q: What about the TGI (MDA-MB-468 breast) of the same compound?
A: 0.0598 µM

Q: What about the GI50 (SNB-19 CNS) of the same compound?
A: 0.0105 µM

Q: What about the TGI (SNB-19 CNS) of the same compound?
A: 1.12 µM

Q: What about the GI50 (OVCAR-5 ovarian) of the same compound?
A: 0.0243 µM

Q: What about the TGI (OVCAR-5 ovarian) of the same compound?
A: 0.284 µM

Q: And the GI50 (NCI-H522 lung)?
A: 0.0146 µM

Q: What about the TGI (NCI-H522 lung) of the same compound?
A: 0.058 µM

Q: And the GI50 (DU-145 prostate)?
A: 0.0196 µM

Q: What about the TGI (DU-145 prostate) of the same compound?
A: 0.65 µM

Q: And the GI50 (MDA-MB-435 melanoma)?
A: 0.125 µM

Q: And the TGI (MDA-MB-435 melanoma)?
A: 1.1 µM

Q: And the GI50 (MOLT-4 leukemia)?
A: < 0.01 µM

Q: And the TGI (MOLT-4 leukemia)?
A: < 0.01 µM

Q: What about the GI50 (HCT-15 colon) of the same compound?
A: < 0.01 µM

Q: And the TGI (HCT-15 colon)?
A: 0.173 µM

Q: And the GI50 (HOP-62 NSCLC)?
A: < 0.01 µM

Q: What about the TGI (HOP-62 NSCLC) of the same compound?
A: 0.016 µM

Q: And the GI50 (UACC-62 melanoma)?
A: < 0.01 µM

Q: What about the TGI (UACC-62 melanoma) of the same compound?
A: 0.148 µM

Q: What about the GI50 (SK-MEL-2 melanoma) of the same compound?
A: 0.0839 µM

Q: And the TGI (SK-MEL-2 melanoma)?
A: 0.189 µM

Q: And the GI50 (CAKI-1 renal)?
A: 0.0133 µM

Q: And the TGI (CAKI-1 renal)?
A: 0.642 µM

Q: What about the GI50 (MDA-MB-231 breast) of the same compound?
A: 0.0187 µM

Q: What about the TGI (MDA-MB-231 breast) of the same compound?
A: 0.0979 µM

Q: What about the GI50 (RXF 393 renal) of the same compound?
A: 0.061 µM

Q: What about the TGI (RXF 393 renal) of the same compound?
A: 0.21 µM

Q: What about the GI50 (MCF7 breast) of the same compound?
A: < 0.01 µM

Q: What about the TGI (MCF7 breast) of the same compound?
A: 1.18 µM
